Test results: the METLIN SMRT retention time set (Domingo-Almenara et al. 2019)

Experiment: gradient 5% acetonitrile 3 min, to 50% in 2 min, to 85% in 15 min, held 3 min, 100 µL/min
Conditions: column: Zorbax Extend-C18 2.1 x 50 mm; eluents: water / acetonitrile, 0.1% formic acid
How it was run: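 A Zorbax Extend-C18 column (2.1 × 50 mm, 1.8 μm) run at 100 μL/min with water and acetonitrile, both containing 0.1% formic acid, separated mixtures of ~100 pure standards. The HPLC was coupled to a quadrupole time-of-flight mass spectrometer operated in positive and negative ionization mode, with dead and dwell volumes of 40 μL and 900 μL. Each retention time was taken from a computationally picked adduct peak that was then manually inspected.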
Work on `c1ccc2c(N3CCCC3)nnc(-c3nc(C4CC4)no3)c2c1` yielded an RP-LC retention time of 649 s. Compound `COCCC(=O)N1CC(c2nc(CCOC)no2)C1` has an RP-LC retention time of 581 s. Compound `Cc1ccc(S(=O)(=O)N2CCC(CCC(=O)NC3CCS(=O)(=O)C3)CC2)cc1` (stereo not drawn) has an RP-LC retention time of 740 s. Compound `Cc1[nH]c(C)c(S(=O)(=O)N2CCC(C(=O)NCc3cccs3)CC2)c1C(=O)N1CCCC1` has an RP-LC retention time of 664 s. In the case of `CCNC(=O)C1CCCN(c2nc3ncn(CC(=O)NCc4ccc(F)cc4)c(=O)c3s2)C1` (stereo not drawn), the RP-LC retention time was 648 s. In the case of `O=C(NCC(F)(F)F)C1CCN(C(=O)c2c(F)cccc2Cl)CC1`, the RP-LC retention time was 686 s. In the case of `CN1CCN(CCCNC(=O)C2CCN(C(=O)c3ccc(-n4ccc5ccccc54)s3)CC2)CC1`, the RP-LC retention time was 630 s. In the case of `CCCN(C(=O)Cc1c(C(=O)O)c(C)cn1CC)c1cccc(Cl)c1`, the RP-LC retention time was 767 s. With `Cc1ccc(CNC(=O)N2CCC(n3c(-c4ccco4)nc4cccnc43)C2)cc1` (stereo not drawn) the RP-LC retention time was 762 s. Compound `O=C(NCc1ccccc1Cl)c1coc(NC(=O)c2cnccn2)n1` has an RP-LC retention time of 643 s. In the case of `Cc1ccccc1Nc1c(-c2cc(Br)ccc2F)nc2ccc(Cl)cn12`, the RP-LC retention time was 1100 s. `COc1ccc(NC(=O)CSc2nc3c(cc2C#N)C(=O)CC(C)(C)C3)c(OC)c1` gave an RP-LC retention time of 892 s. For `Fc1ccccc1-c1nnc2sc(-c3ccc4ccccc4n3)nn12`, the RP-LC retention time was 1080 s. Work on `CC(C)Cn1cc(CCNS(=O)(=O)c2cccc(C(F)(F)F)c2)c2cccnc21` yielded an RP-LC retention time of 1030 s. In the case of `COc1ccc(C(=O)NCCc2c[nH]c3ccc(F)cc23)cc1OC`, the RP-LC retention time was 758 s. With `CCc1cc(C(=O)N2CCN(c3ccccn3)CC2)nc2ccnn12` the RP-LC retention time was 573 s. Work on `CN1CCN(C(=O)c2csc(N3CCN(c4ccc(Cl)cc4)CC3)n2)CC1` yielded an RP-LC retention time of 686 s. `Cc1cc(OCC(=O)Nc2ccc(Cl)cc2F)nc(N2CCN(c3ccccc3)CC2)n1` gave an RP-LC retention time of 945 s. In the case of `Cc1cccc(NC(=O)NCC2CCOCC2)c1C`, the RP-LC retention time was 704 s. For `Cc1ccc(-c2cc(C(=O)O)c3ccccc3n2)c(C)c1`, the RP-LC retention time was 821 s. Work on `C[C@@H]1COC(Nc2ccc3ncnc(Nc4ccc(OCc5nccs5)c(Cl)c4)c3c2)=N1` yielded an RP-LC retention time of 634 s. In the case of `COc1cc(NC(=O)C2CCCN(c3nccnc3Sc3ccccc3)C2)cc(OC)c1OC` (stereo not drawn), the RP-LC retention time was 984 s. `Cc1cc(C)cc(NC(=O)NC2CCN(c3cc(N4CCCC4)cnn3)C2)c1` (stereo not drawn) gave an RP-LC retention time of 690 s. `O=C(NCc1ccc2c(c1)OCO2)C(=O)c1cn(CC(=O)N2CCOCC2)c2ccccc12` gave an RP-LC retention time of 804 s. In the case of `CCc1ccccc1NC(=O)C1CCCN(S(=O)(=O)c2cn(C(C)C)cn2)C1` (stereo not drawn), the RP-LC retention time was 782 s. Compound `CCC1CN2C=NC(N3CCN(C(=O)Nc4cccc(SC)c4)CC3)=CC2=N1` (stereo not drawn) has an RP-LC retention time of 663 s. `CN(C)[C@@H]1CN(C(=O)C2CCCCC2)CC[C@@H]1CO` showed an RP-LC retention time of 585 s. With `CCOC(=O)c1ncn2c1[C@@H]1CCCN1C(=O)c1cc(OC)ccc1-2` the RP-LC retention time was 758 s. `COc1ccc(CN2C[C@@H]3C(=O)N(CCCN4CCCC4=O)C(=O)[C@@H]3C2)c(OC)c1` gave an RP-LC retention time of 598 s. `CCc1ccc(Nc2nc(C(=O)NCCc3ccco3)nc3ccccc23)cc1` gave an RP-LC retention time of 855 s. `Cc1ccc(S(=O)(=O)N2CCC(C(=O)NCc3cscn3)CC2)cc1C` gave an RP-LC retention time of 748 s. `CC1=NS(=O)(=O)N(C)C=C1C(=O)OCc1ccccc1` gave an RP-LC retention time of 882 s. Compound `Cc1cccc(N2CCN(C(=O)c3cn4cc(C)ccc4n3)CC2)c1` has an RP-LC retention time of 702 s. Compound `O=C1NCN(c2ccccc2)C12CCN(CC1COc3ccccc3O1)CC2` (stereo not drawn) has an RP-LC retention time of 736 s. Compound `COC(=O)c1ccc(NC(=O)N2CCC(CCOc3ccc(F)cc3)C2)cc1` (stereo not drawn) has an RP-LC retention time of 981 s. Compound `COc1ccc(NC(=O)NCC2CCOCC2)c(C)c1` has an RP-LC retention time of 657 s. `CCCCN(CC)C(=O)C1CCCN(c2nc3cccnc3s2)C1` (stereo not drawn) showed an RP-LC retention time of 914 s. `CCn1ccc(C(=O)NCC2Cn3cccc3C(=O)N2CC(C)C)n1` (stereo not drawn) gave an RP-LC retention time of 680 s. Work on `COc1ccc(Cl)cc1NC(=O)N1CCC(C(=O)Nc2cc(C)on2)CC1` yielded an RP-LC retention time of 645 s. `CC(C)c1ccc(NC(=O)C2(C)CCCCC(=O)N2)cc1` (stereo not drawn) gave an RP-LC retention time of 786 s. `CN1CCCc2cc(C(CNC(=O)C(=O)NCc3ccc(F)cc3)N3CCOCC3)ccc21` (stereo not drawn) showed an RP-LC retention time of 569 s. Work on `COC1CCOC2(CCN(C(=O)c3ccoc3)CC2)C1` (stereo not drawn) yielded an RP-LC retention time of 652 s. `Cc1cc(Cl)ccc1OCCCC(=O)NO` gave an RP-LC retention time of 801 s. `CC(=O)Nc1ccc(CCc2nc3ccc(C(=O)NC4CC4)cc3[nH]2)cc1` gave an RP-LC retention time of 893 s. Compound `Cc1ccc(NC(=O)C2CCN(S(=O)(=O)c3cn(C(C)C)cn3)CC2)cc1C` has an RP-LC retention time of 819 s. `COc1cc(OC)cc(-c2nc(C3CC(=O)N(c4ccc(C)cc4)C3)no2)c1` (stereo not drawn) gave an RP-LC retention time of 1010 s. `CCCc1ccc(S(=O)(=O)Nc2ccc(N3CCCN(C)CC3)cc2C(=O)O)cc1` showed an RP-LC retention time of 676 s. Work on `Cc1ccc2c(Nc3cccc(Cl)c3)c(C(=O)N3CCOCC3)cnc2n1` yielded an RP-LC retention time of 606 s. In the case of `Cc1cc(SCC(=O)N2CCCc3ccccc32)ncn1`, the RP-LC retention time was 771 s. `Cc1nc(-c2ccc(-c3noc(-c4ccnn4C)n3)cc2)cs1` gave an RP-LC retention time of 1060 s. `CCCN(Cc1ccc(OC)c(OC)c1)Cc1cc(=O)n2cc(Cl)ccc2n1` showed an RP-LC retention time of 632 s. `Cc1cc(-c2nnc(C3CCC3)o2)c(C)n1CC(=O)NCc1ccccc1F` showed an RP-LC retention time of 858 s. `O=C(c1ccco1)N1CCCN(C2CCN(Cc3ccc(F)cc3)C2=O)CC1` (stereo not drawn) gave an RP-LC retention time of 565 s. Work on `CCOC(=O)N1CCN(C2CC(=O)N(CCc3ccc(OC)c(OC)c3)C2=O)CC1` (stereo not drawn) yielded an RP-LC retention time of 659 s. `COc1ccc(NC(=O)N2CCN(c3cc(C)nc(N4CCOCC4)n3)CC2)c(OC)c1` showed an RP-LC retention time of 589 s. Work on `O=S(=O)(c1ccc(-c2noc(-c3cccc(Cl)c3)n2)cc1)N1CCOCC1` yielded an RP-LC retention time of 1170 s. `Cc1nn(CCC(=O)Nc2ccc(F)cc2F)c(=O)c2nn(-c3ccccc3)c(C)c12` gave an RP-LC retention time of 795 s. Work on `COc1ccccc1-c1nc2cnccn2c1NCCC(=O)N1CCc2ccccc21` yielded an RP-LC retention time of 772 s. Work on `COc1ccccc1Nc1c(-c2ccc(N(C)C)cc2)nc2cnccn12` yielded an RP-LC retention time of 833 s. In the case of `NC(=O)c1cccc2[nH]c(-c3ccc(C4CCCN4)cc3F)nc12` (stereo not drawn), the RP-LC retention time was 621 s. `COC(=O)C1=CN(c2ccc(F)c(F)c2)c2cc(F)ccc2S1(=O)=O` showed an RP-LC retention time of 860 s. With `Cc1nn(CC(=O)NC2CCCCCC2)c(=O)c2c(C)n(-c3ccccc3)nc12` the RP-LC retention time was 807 s. With `O=C(NCCc1csc(-c2cccs2)n1)C1CCN(S(=O)(=O)c2ccccc2)CC1` the RP-LC retention time was 889 s. `Cn1c(=O)c(SCC(=O)NCCCc2ccccc2)nc2ccccc21` showed an RP-LC retention time of 840 s. Work on `CN(C(=O)Cn1cncc(C(=O)NC2CCCC2)c1=O)c1ccccc1` yielded an RP-LC retention time of 767 s. For `CCc1nc2cc(-c3noc(-c4ccc(F)c(F)c4)n3)ccc2o1`, the RP-LC retention time was 1200 s. With `CNC(=O)c1cc(-c2ccc(OC)cc2)n[nH]1` the RP-LC retention time was 583 s. With `Cc1ccc2c(c1)N(C(=O)Cn1cnc3c(sc4nc(-c5ccccc5)ccc43)c1=O)CCO2` the RP-LC retention time was 1130 s.
